What was measured:
[1] = system: Clostridium difficile NAP1027; experiment: MIC broth dilution per CLSI M11-A8, modified Brucella broth; format: cell-based; conditions: strain NAP1027; Brucella broth mix + yeast, no blood/hemin; n = 12
Method: (§1) MIC experiments for Puupehenone were carried out in accordance with CLSI M11-A8 for broth dilutions. The levels of antimicrobial were achieved via serial dilution and listed as follows; 32 ug/mL, 16 ug/mL. 8 ug/mL, 4 ug/mL, 2 ug/mL, 1 ug/mL, 0.5 ug/mL, 0.25 ug/mL, 0.125 ug/mL, 0.0625 ug/mL/. Metranidazole was used a positive control. The only deviation from the CLSI was a modification to the media. […] This was noted due to comparisons with previous BHIS experiments. Thus, the media was modified to resemble the BHIS media, with only Brucella broth mix (28 g/L) and yeast (5 g/L). The reason for the decreased efficacy of the drug when in blood based media is still being investigated. The MICs against different C. difficile strains (ATCC9689, NAP1027, and 630 were determined for both Puupehone and Matranidazole See Table 1.

[2] = system: Clostridium difficile ATCC 9689; experiment: as above; format: cell-based; conditions: strain ATCC 9689; Brucella broth mix + yeast, no blood/hemin; n = 12
Method: as §1

[3] = system: Clostridium difficile 630; experiment: as above; format: cell-based; conditions: strain 630; Brucella broth mix + yeast, no blood/hemin; n = 12
Method: as §1

[4] = system: C. difficile strain VPI 10463 or strain ATCC 9689; experiment: 96-well growth inhibition test in BHIS media, optical density readout; format: cell-based, Clostridium difficile; conditions: puupehenone in MeOH, 40 μL-well, Trial 1 (0 μL-well 0.0816)
Method: Tests were performed in a Coy anaerobic chamber (Coy Labs Grass Lake, Mich.). The compound Puupehenone was dissolved in either methanol or DMSO for testing. Using a 96-well plate, 200 μL of BHIS media was added to 12 wells. One was the control (BHIS media alone). The sequential nine wells have increments of 5 μL of puupehenone. The remaining two wells have no puupehenone but one has 20 μL and another has 40 μL of methanol. These last wells are a separate test to determine if methanol influences the growth of C. difficile. Then 10 μL of C. difficile strain VPI 10463 or strain ATCC 9689 was added to each well except for the control. Trials with DMSO were performed in increments of 2 μL of puupehenone. Effects of puupehenone on C. difficile were tested based on optical density (e.g. OD500 nm, OD600 nm or OD630 nm, inter alia) using an optical reader as is standard in the art. Results

| SMILES | MIC [1] [µg/mL] | MIC [2] [µg/mL] | MIC [3] [µg/mL] | optical density (growth of C. difficile) [4] |
| --- | --- | --- | --- | --- |
| Cc1ncc([N+](=O)[O-])n1CCO [Metranidazole, reference compound] | 0.25 | 0.25 | 0.5 |  |
| CC1(C)CCC[C@]2(C)[C@H]3C=C4C=C(O)C(=O)C=C4O[C@@]3(C)CC[C@@H]12 [Puupehenone, puupehenone] | 8 | 4 | 8 | 0.0742 |
